Values quoted from earlier work, collected in patent publication US12636282B1 (priority 2020, dated 2026).
Read-outs that look alike come from different tables or passages of the source.

Tests used:
influenza = details: NAC 600 mg twice a day for 6 months; 79% with placebo
[1] = test system: lethal influenza infections; details: mice, lethal influenza infection
Coxackievirus B = details: in vivo; through suppressing viral replication and inflammatory responses
COVID-19 = details: early uncontrolled study

CCN(CCO)CCCC(C)Nc1ccnc2cc(Cl)ccc12 (stereo not drawn) [HCQ, hydroxychloroquine]
Retinal toxicity, share of patients (after 6 years of HCQ use): 1.8%
Retinal toxicity, share of patients (after 11 years of HCQ use): 3.3%
Retinal toxicity, share of patients (after 16 years of HCQ use): 11.5%

CC(=O)N[C@@H](CS)C(=O)O [NAC, N-acetyl cysteine]
virus-infected subjects developing flu symptoms (influenza): 25%
Survival [1]: 20%
Coxackievirus B-induced myocarditis (Coxackievirus B): effectively alleviates

CCOC(=O)C1=C[C@@H](OC(CC)CC)[C@H](NC(C)=O)[C@@H](N)C1 [oseltamivir]
Survival [1]: 60%

Tocilizumab: interleukin 6 (IL-6) receptor antibody
fever (COVID-19): rapidly reduction in fever
oxygenation (COVID-19): improvement in oxygenation
